Laboratory results from patent US20220177841A1, “EX VIVO METHODS FOR PRODUCING A T CELL THERAPEUTIC AND RELATED COMPOSITIONS AND METHODS” (Myst Therapeutics LLC, priority 2019, published 2022).
“Also recorded” adds a separate entry of the source. Peptide text beside a SMILES is read from it. * marks the point of attachment. Cbz = O=C(OCc1ccccc1)*; CH2F = FC*

What was measured:
[1] = system: expanded human T cells from three healthy donors; experiment: T cell adjuvant high throughput screen, total viable CD3+ cell count; assay type: cell-based; details: 6 days; for total viable CD3+ cell count compared with DMSO treatment control: 10 μg/mL antibodies, 25 μM Z-VAD-FMK, irrespective of activation status (with or without OKT3)
Experimental: Cells were expanded from PBMC derived from Ficoll gradient separation from three healthy donor's apheresis material. […] Cells were next seeded into gas permeable 100M culture vessels and expanded for 7-14 days to achieve a large bank of T cells, and cryopreserved. […] Half of wells were additionally supplemented with 50 ng/mL OKT3, a human anti-CD3 monoclonal antibody. In total, 15 test adjuvant agents were tested for their impact on cell viability in the presence and absence of anti-CD3 activation (see Table E3). Cells were cultured for 6 days total, including a 50% medium exchange on culture day 3, and monitored for total viable CD3+ cell count.
Total viable CD3+ cell count for cells grown in the absence and presence of OKT3 stimulation are shown in FIGS. 27A-C and FIGS. 28A-C, respectively. The results shown are for the following concentrations of adjuvant: 10 μg/mL for tested antibodies (Tavolixizumab, Oxelumab, Ipilimumab, Tocilizumab, Urelumab, Pembrolizumab, Varlilumab, anti-GITR MK-1248, anto-human FasL); 25 μM for Z-VAD-FMK pan-caspase inhibitor; 250 nM for HSP inhibitor NVP-HSP990; and 1000 IU/mL for cytokine (IL-7, IL-15 or IL-21).

[2] = system: PBMC from three healthy donors; experiment: T cell expansion with Fas ligand or caspase inhibition, anti-CD3 stimulation; assay type: cell-based, human; details: OKT3 activation, caspase inhibitor 2 μM present continuously, replenished each media exchange
Experimental: (§1) Apoptotic inhibitors directed against Fas- and caspase-mediated pathways were assessed to determine effects on tumor reactive T cells during manufacturing. The studies were carried out in healthy donors, and thus, stimulation of the T cells were carried out with anti-CD3 (OKT3) or anti-CD3/anti-CD28 stimulation in order to mimic conditions present in the tumor microenvironment (TME). Constant activation signals present in the tumor microenvironment, as can be stimulated by anti-CD3 or anti-CD3/anti-CD28 activation can be detrimental to T cell growth. Cellular viability and projected cell numbers were used to compare the impact of modulation of apoptotic pathways in both a transient and a continuous activation assay, the latter of which more closely recapitulates the tumor microenvironment.
Immune Cell Serum Replacement (ThermoFisher) at 5%, and a final concentration of 2.0 mM of a L-alanyl-L-glutamine dipeptide form of glutamine (GlutaMAX Supplement; Thermofisher). Cells were then seeded into a 24-well gas permeable cell culture plate at a density of 2.14×10^5 cells/mL (7.5×10^5 cells/cm^2). […]
Cultures were maintained for at least 13 days with a 50% media exchange every other day beginning on culture day 2. Cell counts and viability were monitored every other day. […]

[3] = system: PBMC from two healthy donors; experiment: T cell expansion with Fas ligand or caspase inhibition, anti-CD3/anti-CD28 stimulation (transient or continuous activation); assay type: cell-based, human; details: 2 μM
Experimental: as §1
Cells were then seeded into a 24-well gas permeable cell culture plate at a density of 1.5×10^5 cells/mL (5.0×10^5cells/cm^2).
Culture wells were assigned to one of two treatment groups, transient or continuous activation. For transient activation, anti-CD3/anti-CD28 paramagnetic beads (Dyanbeads™) were added to the culture media at a ratio of 1 bead per cell starting on culture day 0, and then were removed during media exchange on day 2. […]
Cell counts and viability were monitored every other day. […]

[4] = system: CRC tumor fragment and SCS cultures; experiment: Caspase inhibition in tumor processing, fragment or SCS cultures; assay type: cell-based, human
Experimental: Half of cultures contained media additionally supplemented with 2 μM of pan-caspase inhibitor Z-VAD-FMK which was replenished at each media exchange. Cultures were incubated at about 37° C. for a minimum of 18 days with a 50% medium exchange occurring every 2-3 days following culture day 5. Cell counts were performed on day 5 and at each medium exchange using the NC-200 Automated Cell Counter (ChemoMetec).

[5] = system: cells processed from melanoma tumor fragments; experiment: Anti-CD3 stimulation on expansion of tumor-derived cells; assay type: cell-based, human
Experimental: Cells processed from melanoma tumor fragments as described in Examples 1 and 2, were cultured in the presence or absence of 50 ng/mL OKT3, a human anti-CD3 monoclonal antibody. Cell cultures were carried out to between 14 and 31 days in either a conventional 6-well plate or a gas permeable culture plate with RPMI or OpTmizer media. […] About 50% of cellular media was exchanged every other day beginning on the 5th day of culture as described previously. Cells were then counted using the NC-200 Automated Cell Counter (Chemometec).

[6] = system: T-cells from three healthy donors; experiment: Post-stimulation CD4+ and CD8+ activation markers, flow cytometry; assay type: cell-based, human; details: 50 ng/mL OKT3, compared to culture in the absence of OKT3
Experimental: Specific markers of activation on the CD4+ and CD8+ cell populations were measured using flow cytometry over a time course of 3-48 hours. Specifically, the following markers were assessed: CD38 and CD39 (FIG. 12A and FIG. 13A), CD134 and CD137 (FIG. 12B and FIG. 13B), and CD69 and CD90 (FIG. 12C and FIG. 13C).

[7] = system: PBMC from two healthy donors; experiment: Checkpoint modulators and costimulatory agonist antibodies on T cell phenotype, flow cytometry; assay type: cell-based, human; details: 0.5, 1, 10, or 20 μg/mL; 50 ng/ml OKT3; 48 hours
Experimental: Cells were then seeded into a 24-well gas permeable cell culture plate at a density of 5.0×10^5 cells/cm^2. Cells were activated for 48 hours using 50 ng/ml OKT3, a human anti-CD3 monoclonal antibody, and were additionally treated with agents as described below. Following 48 hours in culture, cells were analyzed for phenotype.
Cells were divided into 6 treatment groups, as follows: Ipilimumab (anti-CTLA4), Pembrolizumab (anti-PD1), Tavolixizumab (anti-TNFRSF4), Urelumab (anti-CD137), and Varlilumab (anti-CD27), as well as a no added agent control. For all test groups, cells in each treatment group were cultured in the presence of the monoclonal antibodies at 0.5, 1, 10, or 20 μg/mL.
None of the tested antibodies appeared to affect the memory differentiation state of the T cells. T cell phenotype was assessed for CD4+and CD8+cells independently via flow cytometry for markers of activation OX40, 41BB, CD107a, and PD1. Results are shown in FIG. 38 (CD3+), FIG. 39 (CD4+) and FIG. 40 (CD8+). Higher concentrations of Varlilumab, an agonist anti-CD27 antibody, promoted 41BB and CD107a expression on CD3+ T cells (FIG. 38B and 38C), CD4+ T cells (FIG. 39B and 39C) and CD8+ T cells (FIGS. 40B and 40C). Urelumab, an agonist CD137 receptor antibody, promoted 41BB expression on CD4 T cells (FIG. 39B) and CD8+ T cells (FIG. 40B). Pembrolizumab, an anti-PD-1 antagonist, decreased PD1 expression on CD4 T cells (FIG. 39D)

[8] = presence versus absence of 50 ng/mL OKT3, 14 to 31 days

## COC(=O)C[C@H](NC(=O)[C@H](C)NC(=O)[C@@H](NC(=O)OCc1ccccc1)C(C)C)C(=O)CF [Z-VAD-FMK, carbobenzoxy-valyl-alanyl-aspartyl-[O-methyl]-fluoromethylketone] (Cbz-Val-Ala-Asp(OMe)-CH2F)
[1]
  total viable CD3+ cell count compared with DMSO treatment control: consistently higher viable cell counts than the DMSO treatment control
[2]
  cell growth (total cell number): greatest cell growth across donors
[2]; listed as caspase inhibition
  cell growth (total cell number): superior growth
[3]; caspase inhibitor continuously
  total viable cell number and viability versus other conditions: outperformed the other conditions
[3]; caspase inhibitor transiently (day 0 only)
  total viable cell number and viability versus other conditions: outperformed the other conditions
[4]; SCS conditions
  outgrowth of T cells: outgrowth of T cells was not observed
[4]; SCS culture, 2 μM replenished at each media exchange
  cell viability: similarly high
[4]; tumor fragment-derived culture, 2 μM replenished at each media exchange
  cell viability: high
[4]; tumor fragment-derived culture, 2 μM replenished at each media exchange, minimum 18 days
  outgrowth of cells (fold expansion, total viable cells): outgrowth of cells was superior

## IL-15: recombinant cytokine tested as T cell adjuvant
[1]; 62.5 IU/ml-1000 IU/ml
  dose response, cell number: cell number increased with increasing concentration

## OKT3: human anti-CD3 monoclonal antibody
[5]; 50 ng/mL OKT3, 14 to 31 days, 300 or 6000 IU/mL IL-2
  T cell expansion: supported T cell expansion
[5]; donor 6, all conditions, presence or absence of anti-CD3 stimulation
  fold expansion: 2-4 fold
[5]; [8]
  fold expansion: largely similar; also recorded: did not substantially impact
  total cell number: largely similar; also recorded: did not substantially impact
[6]; 48 hours following stimulation
  upregulation of activation markers (CD38, CD39, CD134, CD137, CD69, CD90) on CD8+ T cells: all assessed markers were upregulated to some extent
[6]; first 48 hours following stimulation
  upregulation of activation markers (CD38, CD39, CD134, CD137, CD69, CD90) on CD4+ T cells: all assessed markers were upregulated to some extent

## Oxelumab: anti-OX40L antibody
[1]
  total viable CD3+ cell count compared with DMSO treatment control: consistently higher viable cell counts than the DMSO treatment control

## Pembrolizumab: anti-PD1 antibody
[1]
  total viable CD3+ cell count compared with DMSO treatment control: consistently higher viable cell counts than the DMSO treatment control
[7]
  PD1 expression on CD4 T cells: decreased

## Urelumab: agonist CD137 receptor antibody
[7]
  41BB expression on CD4+ T cells: promoted
  41BB expression on CD8+ T cells: promoted

## Varlilumab: agonist anti-CD27 antibody
[7]
  41BB expression on CD3+ T cells: promoted
  41BB expression on CD4+ T cells: promoted
  41BB expression on CD8+ T cells: promoted
  CD107a expression on CD3+ T cells: promoted
  CD107a expression on CD4+ T cells: promoted
  CD107a expression on CD8+ T cells: promoted
